Assay results taken from patent US7959743B2, “Lithium salts of fatty alcohol sulphates for cleaning boreholes, boring devices and borings” (priority 2004, dated 2011).

System: Corophium volutator
Details: in vivo

| Substance | Corophium volutator 10 d, LC 50 |
| --- | --- |
| C8-10 alkyl-1,5-glucoside [V4] | None after 433 mg/kg |
| Soya polyol ethoxylate [V3] | 1888 mg/kg |
